Data published in patent US4720497A, “6-purinyl N-/2-chloroethyl/carbamate and thiocarbamate and process for the preparation thereof” (SPOFA, Spojene Podniky pro Zdravotnickou Vyrobu, priority 1984, dated 1988).
pIC50: −log10 of the molar value. Entries after “also recorded” stand apart in the source; their conditions may differ. Like-named read-outs stand apart in the source and are kept apart here.

Key:
[1] = tested on: Yoshida ascitic sarcoma; assay: Therapeutic synergism with Benfluron, survival of rats with Yoshida ascitic sarcoma (Example 9); format: in vivo, female Wistar rats; conditions: for Average period of survival (days): geometric average (fiducial limits P=0.95)
Excerpt: (§1) The antineoplastic activity of the compounds of the invention has been investigated by testing the compounds of the chemical group "in vivo" against experimental rodent tumors such as Crocker's sarcoma (S180), solid-type Ehrlich carcinoma (STE), kreb's ascites tumor (Kr2), all maintained in mice H, Gardner lymphosarcoma (LsG, C3H mice), P388 and L1210 leukemias (DBA2 mice), Zajdela ascites hapatoma (ZAH, Wistar rats), Yoshida ascites reticulosarcoma (Y, Wistar rats) and B16 melanoma (C57B16 mice) in experiments according to Jelinek, V. (Neoplasma 12, 469 (1969); ibid. 7, 146 (1960) and "in vitro" experiments using radioactive precursors of nucleic acids and proteins according to Miko, M. et al. (Cancer Res. 39, 4242 (1979); Neoplasma 26, 449 (1979); ibid. 16, 161--1969) with minor modifications (Mattern J.: Studies on the Drug Sensitivity of Short Term Cultured Tumor Cell Suspensions. In "Human Tumors in Short Term Culture" (Dendy, P. P. ed.), p. 301, Academic Press 1976). Therapeutic synergism has been studied by the method of Carter, W. H. et al. (cf. Cancer Res. 42, 2963--1982).
One hundred and twenty seven infantile female Wistar rats weighing 50-60 g are divided into sixteen groups: one control group of 25 animals and fifteen experimental groups of 6 to 7 animals. A lethal dose of the tumor ascites from Yoshida ascitic sarcoma is implanted intraperitoneally in all the animals. The experimental groups are treated with the substance Ia in water suspension, water solution of a cytostatic Benfluron (CAS 80427-58-3), or a combination of both the substances. The suspension or solution contains the substances in such a concentration that doses of 0.4 or 0.2 and 0.1 ml of the suspension/solution p.o. are equal to doses of 200 or 100 and 50 mg Ia/kg or to doses of 160, 80 or 40 mg of Benfluron/kg. Doses of the substance Ia are administered to the experimental animals once a day, four times altogether, starting on the first day after the tumor implantation. Benfluron is administered only once, on the fourth day after the tumor implantation, 7 hours after the last dose of the substance Ia.

[2] = literature; cited from earlier work
[3] = tested on: Ehrlich Carcinoma cells; assay: Cytotoxicity in vitro: 14C precursor incorporation in Ehrlich Carcinoma cells (Example 10); format: cell-based; conditions: Ehrlich, read-out: ID50 (14C incorporation)
Excerpt: as §1
The degree of influence on the incorporation of ^14 C from adenine-^14 C and valine-^14 C to the fraction of Ehrlich Carcinoma cells insoluble in trichloroacetic acid serves as the measure of cytotoxicity. The value ID50 is the concentration of a cytostatic that reduces the ^14 C incorporation down to 50% of the non-influencedcontrol cells.

[4] = tested on: Yoshida tumor; assay: Survival of rats with implanted Yoshida tumor (Example 7); format: in vivo, female Wistar rats; conditions: Wistar rats
Excerpt: as §1
(§2) Additionally, the compounds of the present invention are useful in increasing survival time of the suitable biological subjects, namely mice and rats bearing tumors STE, ZAH and/or Y: because of the lethal nature of the test system employed, the antitumor effect of the compounds is illustrated by a side comparison of the survival time of treated animals (survival for a longer time) with the untreated control groups of animals (cf. Examples 5, 6, and 7). In these typical experiments, ten animals are in the experimental groups, and the treated groups of animals survive for a longer time than the untreated controls.
(§3) Fifty infantile female Wistar rats weighing approximately 60 g are divided into five groups: one control and four experimental ones, 10 animals each. A lethal dose of the tumor ascites from Zajdel ascitic hepatoma is implanted intraperitoneally in all the animals. The experimental groups are treated with the substance Ia in water suspension. The suspension contains the substance Ia in such an amount that a dose of 0.4 or 0.2 ml of the suspension p.o. is equal to a dose of 200 or 100 mg Ia/Kg. This dose is applied to the experimental animals once a day, five times altogether, starting on the first day after the implantation.

[5] = tested on: Yoshida ascitic tumor cells; assay: Cytotoxicity in vitro: initial velocity of 3H/14C precursor incorporation in Yoshida ascitic tumor cells (Example 11); format: cell-based; conditions: Rattus norvegicus, YOSHIDA
Excerpt: as §1
(§4) In analogous experiments, the degree of influence on the initial velocity of the incorporation of ^3 H from 5-iodo-2'-deoxy-(6-^3 H)uridine or that of ^14 C from a mixture of L-(U-^14 C)-aminoacids to the fraction of Yoshida ascitic tumor cells insoluble in trichloroacetic acid serves as the measure of cytotoxicity. The value IC50 is the concentration of a substance that reduces the initial velocity of the ^3 H or ^14 C incorporation down to 50% of the noninfluenced control cells.

[6] = tested on: Yoshida tumor; assay: Survival of rats with implanted Yoshida tumor (Example 6); format: in vivo, female Wistar rats; conditions: Wistar rats
Excerpt: as §1, §2, §3

[7] = tested on: Zajdel ascitic hepatoma; assay: Survival of rats with implanted Zajdel ascitic hepatoma, comparison with 6-mercaptopurine (Example 8); format: in vivo, female Wistar rats; conditions: for Period of survival (% of control): Wistar rats
Excerpt: as §1, §3

[8] = tested on: Ehrlich tumor (STE); assay: Antitumor activity against implanted Ehrlich tumor (STE) in mice, tumor weight (Example 4); format: in vivo, female mice H; conditions: mice H
Excerpt: as §1
Sixty female mice H weighing approximately 20 g are divided into three groups: one control group and two experimental groups of 20 animals each. A lethal dose of the Crocker tumor (S180) homogenate is implanted subcutaneously in all the animals. The experimental groups are treated with the substance Ia in water suspension. The suspension contains the substance Ia in such an amount that a dose 0.4 or 0.2 ml of the suspension p.o. is equal to a dose 200 or 100 mg Ia/kg. This dose is administered to the experimental animals once a day, eight times altogether, starting on the fifth day after the implantation. On the fourteenth day after the implantation, a half of the animals in each group is sacrificed in ether anaesthesia, and tumors are removed and weighed. The remaining animals are left to monitor the time of death.

[9] = tested on: tumor cells; assay: Comparison of cytotoxicity of Ia and Ib in vitro, precursor incorporation (Example 12); format: cell-based
Excerpt: as §1, §4
In analogous experiments, the following values of IC50 were determined: […]

## CN(C)CCOc1cc2c(c3ccccc13)-c1ccccc1C2=O.Cl [Benfluron, 5-[2-(N, N-Dimethylamino)ethoxy]-7-oxo-7H-benzo(c)fluorene hydrochloride, reference compound]
[1]; Benfluron 40 mg/kg p.o. once
  Average period of survival (% of control): 104 % of control
  Average period of survival (days): 7.67 (6.9; 8.6) days
[1]; Benfluron 80 mg/kg p.o. once
  Average period of survival (% of control): 104 % of control
  Average period of survival (days): 7.61 (6.5; 8.9) days
[1]; Benfluron 160 mg/kg p.o. once
  Average period of survival (% of control): 106 % of control
  Average period of survival (days): 7.79 (6.9; 8.8) days

## CCN(CC)C(=O)Nc1ncnc2nc[nH]c12 [N-(6-purinyl)-N', N'-diethylurea]
[2]
  antineoplastic action: weak antineoplastic action

## Nc1nc(S)c2[nH]cnc2n1 [2-amino-6-mercaptopurine, 2-Amino-6-mercaptopurine, reference compound]
[3]; precursor adenine-14C
  pIC50: < 3.22
[3]; precursor valine-14C
  pIC50: < 3.22

## Sc1ncnc2nc[nH]c12 [6-mercaptopurine, reference compound]
[4]; p.o. 5 × 20 mg/kg (Example 7)
  Period of survival (% of control): 107 % of control
[4]; p.o. 5 × 40 mg/kg (Example 7)
  Period of survival (% of control): 156 % of control
[5]; precursor 5-iodo-2'-deoxy(6-3H)uridine, read-out: IC50 (initial velocity of 3H incorporation)
  pIC50: < 2.00
[5]; precursor L-(U-14C)aminoacids, read-out: IC50 (initial velocity of 14C incorporation)
  pIC50: < 3.64
[6]; p.o. 5 × 20 mg/kg (Example 6)
  Period of survival (% of control): 109 % of control
[6]; p.o. 5 × 40 mg/kg (Example 6)
  Period of survival (% of control): 127 % of control
[7]; p.o. 5 × 20 mg/kg (Example 8)
  Period of survival (% of control): 101 % of control
[7]; p.o. 5 × 40 mg/kg (Example 8)
  Period of survival (% of control): 105 % of control
[7]; in words (Example 8)
  antitumor effect / average period of survival vs non-treated control: ineffective; also recorded: inactive

## O=C(NCCCl)Oc1ncnc2nc[nH]c12 [Substance Ib, 6-[N-(2-Chloroethyl)carbamoyl]oxypurine]
[8]; p.o. 8 × 100 mg/kg
  Tumor weight (% of control): 76 % of control
[8]; p.o. 8 × 200 mg/kg
  Tumor weight (% of control): 81 % of control
[9]; precursor 5-iodo-2'-deoxy(6-3H)uridine (Example 12)
  pIC50: 4.26
[9]; precursor L-(U-14C)aminoacids (Example 12)
  pIC50: 4.10
[6]; p.o. 5 × 100 mg/kg (Example 6)
  Period of survival (% of control): 100 % of control
[6]; p.o. 5 × 200 mg/kg (Example 6)
  Period of survival (% of control): 83 % of control

## Nc1ncnc2c1ncn2C(=O)NCCCl [N-(2-chloroethyl)-6-aminopurine-9-carboxamide]
[2]
  biological activity: did not exhibit any biological activity
